The values below come from US8287923B2, “Compositions and methods for treating immune disorders” (priority 2005, dated 2012).

This assay has as its system NS-SV-AC cells. The assay can be described thus: TNF-α-induced cytotoxicity, MTT assay. Format: cell-based, human. As to conditions: cells exposed to TNF-α and EGCG in presence of inhibitor. Here is the method:
TNF-α cyotoxicity: NS-SV-AC cells (0.5×10<4> cells/well) were seeded in a 96-well microplate and either treated for 24 hr with EGCC as described above (or not treated in the control), in the presence of 100 ng/ml TNFα and 10 μg/ml cyclohexamide. After the treatments, viability was determined by the MTT assay. The cells in each well were washed with 200 μl of phosphate-buffered saline (PBS) and incubated with 100 μl of 2% (w/v) MTT in a solution of 0.05 M Tris-HCl (pH 7.6), 0.5 mM MgCl2, 2.5 mM CoCl2 and 0.25 M disodium succinate at 37° C. for 30 min. Cells were fixed by the addition of 100 μl of 4% (v/v) formalin in 0.2 M Tris-HCl (pH 7.6), and after a 5 min incubation at room temperature liquid was removed and the wells were allowed to dry. Each well was rinsed with 200 μl water and cells were solubilized by the addition of 100 μl of 6.35% (v/v) 0.1 N NaOH in DMSO. The colored formazan product was measured by a Thermo MAX micro plate reader (Molecular Devices Corp. Sunnyvale, Calif.) at a wavelength of 562 nm.
We examined the effects of EGCG on TNF-α-induced cytotoxicity of the human salivary gland acinar cell line NS-SV-AC using the MTT assay.
To examine the role of activation of the p38 signaling pathway in reducing TNF-α-induced cytotoxicity, cells were exposed to TNF-[alpha] and EGCG in the presence of either the p38 MAPK inhibitor SB203580 or the MEK inhibitor PD98059.

Molecules are shown by their SMILES.

For `C[S+]([O-])c1ccc(-c2nc(-c3ccncc3)c(-c3ccc(F)cc3)[nH]2)cc1` (centres unmarked) [SB203580], the “effect on protection by EGCG against TNF-α-induced loss of cell viability” value is given as “significantly reduced the protective effect of EGCG”.

As to `COc1cccc(-c2cc(=O)c3ccccc3o2)c1N` [PD98059], the “effect on protection by EGCG against TNF-α-induced loss of cell viability” value was “significantly reduced the protective effect of EGCG”.
